Laboratory results: patent publication US11065249B2, “Diacylglycerol acyl transferase 2 inhibitor” (Pfizer Inc., priority 2019, dated 2021)
≈ marks a conversion by molar mass, not a printed value.

How the values were obtained:
[1] = Thermodynamic solubility in various biorelevant media (PBS, SGN, FaSSIF, FeSSIF); format: physicochemical; conditions: 25 °C, thermodynamic from solid
Protocol: The solubility of active pharmaceutical ingredients is an important characteristic in determining biological performance and ease of formulation during drug development, with high solubility being preferred (Klein, S. 2010, The AAPS Journal, 12, 397-406; Di, L., et al 2012, Drug Disc. Today, 17.486-495). A test sample of crystalline solid (˜7 mg) was combined in a vial with 1 mL of the relevant buffer solution and the mixture vortexed to combine. If the solid dissolved completely, additional solid was added with vortexing until a saturated solution was obtained. The saturated solution/solid mixture was capped and subjected to temperature cycling as follows: 1 min at 25° C.; 8 h at 40° C.; 5 h at 15° C. and 12 h at 25° C. The mixture was filtered in a centrifugal filtration device (0.22 μm PVDF filter, MilliporeSigma, Milwaukee, Wis.) at 13,000 rpm and the concentration of the test compound in the filtrate was determined by HPLC/UPLC with reference to a three point standard curve. Phosphate buffered saline (PBS, pH 6.8, 50 mM phosphate buffer, 250 mM NaCl). Simulated gastric fluid (SGN pH 1.2, USP recipe). Fasted state simulated intestinal fluid (FaSSIF, 3 mM sodium taurocholate, 0.75 mM phospholipid from soybean lecithin, 50 mM phosphate buffer, ionic strength adjusted to 250 mM with NaCl, pH 6.8) and fed state simulated intestinal fluid (FeSSIF, 15 mM sodium taurocholate, 3.75 mM phospholipid from soybean lecithin, 144 mM acetic acid, 50 mM phosphate buffer, ionic strength adjusted to 250 mM with NaCl, pH 6.8).

[2] = High throughput determination of intrinsic clearance in human hepatocytes; format: in vitro ADME; conditions: human, pooled cryopreserved human hepatocytes (suspension), high throughput human hepatocyte assay, 1 μM test compound; mean +/− Std Dev
Protocol: The incubation was carried out at 37° C. […] The samples were centrifuged (Eppendorf, Hauppauge, N.Y.) at 3000 rpm for 5 min at 4° C.

[3] = Determination of pKa (capillary electrophoresis, Analiza); format: physicochemical; conditions: most basic pKa, mean
[4] = tested on: Western diet fed Sprague-Dawley rats; test: Rat western diet model: in vivo effects on plasma and hepatic triglyceride levels; conditions: oral twice daily 3-100 mg/kg, compared with chow-fed vehicle animals
Text: The rat western diet model was utilized to assess the effects of DGAT2 inhibitor treatment on plasma triglyceride production and hepatic triglyceride content in vivo. Male Sprague-Dawley rats were housed under standard laboratory conditions on a 12-hour light, 12-hour dark cycle (lights on at 06:00). Two weeks prior to study start animals were placed on a high-fat, high sucrose, high-cholesterol diet (D12079b, provided by Research Diets, New Brunswick, N.J.). This diet provides ˜43% of kilocalories from carbohydrate and ˜41% of kilocalories from fat. Example 4 was administered orally as a solution (10 mL/kg dosing volume) in 0.5% methylcellulose in deionized water, pH 7.0-7.5 (methylcellulose was obtained from Sigma-Aldrich, St. Louis, Mo.). […] Plasma TG levels were determined using a Roche Hitachi Chemistry analyzer according to the manufacturer's instructions (Roche Diagnostics Corporation, Indianapolis, Ind.) and data was analyzed using GraphPad Prism (GraphPad Software, Inc., La Jolla, Calif.). […] The triglyceride assay was performed through absorbance and reported as milligrams per deciliter. […]
FIG. 4 plots the multiple dose effects of Example 4 on Plasma Triglyceride in Western Diet Fed Sprague-Dawley Rats where plasma triglyceride levels were determined from blood drawn from the lateral tail vein 2-hours following the final dose of Example 4. […]

[5] = Intrinsic clearance in human hepatocytes (relay method); format: in vitro ADME; conditions: cryopreserved human hepatocytes (suspension), relay hepatocyte assay, 1 μM test compound, mean +/− Std Dev
Protocol: Cryopreserved human hepatocytes (Lot DCM from BioreclamationIVT) were used. […] At time 0 and 4 h, 25 μL of hepatocyte suspension was removed from the incubation and added to 50 μL of ice-cold acetonitrile (containing metoprolol, indomethacin, and terfenadine as internal standards) to quench the reaction. The samples were centrifuged (Eppendorf, Hauppauge, N.Y.) at 3000 rpm (1439×g) for 10 min at room temperature, and 50 μL of supernatant was transferred to a clean plate, dried completely, and reconstituted before liquid chromatography/tandem mass spectrometry (LC-MS/MS) analysis. The remaining hepatocyte suspensions in the incubation plate were centrifuged (3000 rpm, 1439×g, 10 min, room temperature). The supernatant of 300 μL was transferred to a clean 24-well plate and stored at −80° C. until the next relay experiment. For the second relay experiment, the supernatant plates were warmed first to room temperature for 30 minutes, then to 37° C. for 30 min, and hepatocytes were added to the samples to give a final cell density of 0.5 million cells/mL. The plates were incubated at 37° C. for 4 h, sampled, and processed as described above. Five relays were performed to give a total incubation time of 20 h, with sampling points at (0, 4, 8, 12, 16 and 20 h). The concentrations of test compound determined at each time point by the LC-MS/MS analysis were used to calculate the intrinsic clearance.

[6] = Intrinsic clearance in human liver microsomes; format: in vitro ADME; conditions: human, pooled human liver microsomes, pH 7.4, human liver microsome assay, 1 μM test compound; mean +/− STD Dev
Protocol: The incubations were conducted at 37° C. […] (Sorvall R C 3C Plus, Thermo Scientific, Waltham, Mass.).

- solubility at 25 h ([1]; fasted state simulated intestinal fluid (FaSSIF), FaSSIF pH 6.8): 955 µg/mL (≈ 2180 µM)
- solubility at 25 h ([1]; phosphate buffered saline, aqueous buffer, PBS, pH 6.8): 580 µg/mL (≈ 1320 µM)
- solubility at 25 h ([1]; simulated gastric fluid, SGN pH 1.2): > 27000 µg/mL
- hepatocyte CLint at 1 μM [2]: < 1.8 µL/min/1e6 cells
- pKa [3]: 7.5
- hepatocyte CLint at 1 μM [5]: 0.98 µL/min/1e6 cells
- microsomal CLint at 1 μM [6]: < 7 µL/min/mg
SMILES: CCOc1cccnc1Oc1cncc(-c2ncc(C(=O)N[C@@H]3CNC[C@@H](F)C3)cn2)c1 [Example 4, 2-{5-[(3-Ethoxypyridin-2-yl)oxy]pyridin-3-yl}-N-[(3S,5S)-5-fluoropiperidin-3-yl]pyrimidine-5-carboxamide]
- circulating triglyceride response, resulting levels [4]: approached those of the chow-fed vehicle animals
